Here are results for 22 molecules from patent US20090181948A1, “DIAMINE DERIVATIVE” (KYOWA HAKKO KOGYO CO., LTD., priority 2005, published 2009).

By melting point is commonly meant the temperature of the solid-liquid transition.

The target of data set [1] is T1, histamine H3 receptor (Rattus norvegicus, UniProt Q9QYN8).
T1 construct: from tissue; host or cells: rat striatum (Sprague-Dawley, male, 6 weeks), membrane homogenate
As to the kind of experiment: Inhibitory effect on histamine release suppressive action of histamine H3 receptor agonist (Nα-methylhistamine) in rat forebrain synaptosomes. Type of data set: biochemical. To be noted: 1 μmol/L test compound and 1 μmol/L Nα-methylhistamine, potassium 30 mmol/L stimulation, read-out: Inhibition ratio of the [3H]-histamine release suppressive action of Nα-methylhistamine. On the procedure:
To the forebrains of Sprague-Dawley male rats (6 to 8 weeks of age), a 30-fold volume of a 0.32 mol/L aqueous sucrose solution was added and the forebrains were homogenized. The resulting homogenate was centrifuged (1,000×g, 4° C., 10 min), and to the obtained supernatant, an equivalent volume of Krebs-Ringer solution [120 mmol/L sodium chloride, 0.8 mmol/L potassium chloride, 2.6 mmol/L calcium chloride, 0.67 mmol/L magnesium sulfate, 1.2 mmol/L potassium dihydrogen phosphate, 27.5 mmol/L sodium bicarbonate, 10 mmol/L glucose (pH 7.3)] was added, and the resulting mixture was centrifuged (10,000×g, 4° C., 15 min). To the obtained precipitate, a 15-fold volume of Krebs-Ringer solution was added to suspend the precipitate. Then, the concentration of protein in the resulting tissue homogenate (synaptosomes) was measured and used for a test.
To the synaptosomes (300 μg in terms of protein amount) prepared by the above-described method, a [^3H]-histidine solution [final concentration: […] (740 kBq)/mL]: 6 μl of a 37 MBq/mL (specific activity: […]) solution] was added, and the total volume was adjusted to 300 μL with Krebs-Ringer solution. Then, the resulting mixture was incubated at 37° C. for 30 minutes and centrifuged (10,000×g, 25° C., 3 min). To the resulting precipitate (synaptosomes), 300 μL of Krebs-Ringer solution was added, and the mixture was incubated at 37° C. for 5 minutes and centrifuged (10,000×g, 25° C., 3 min). This procedure was repeated 5 times, whereby washing of synaptosomes was carried out. The resulting synaptosomes were suspended in 100 μL of Krebs-Ringer solution, and the resulting suspension was used for the following procedure.
A test compound and N^α-methylhistamine were separately dissolved in Krebs-Ringer solution to give a concentration of 20 μmol/L (the resulting mixtures were referred to as a test compound solution and a N^α-methylhistamine solution, respectively). To 100 μL of the above-described suspended synaptosomes (300 μg in terms of protein amount), 140 μL of Krebs-Ringer solution was added. Then, 30 μL of the test compound solution and 30 μL of the N^α-methylhistamine solution were added thereto, and the resulting mixture was incubated at 37° C. for 2 minutes. Then, an equivalent volume of a stimulating solution [64 mmol/L sodium chloride, 56.8 mmol/L potassium chloride, 2.6 mmol/L calcium chloride, 0.67 mmol/L magnesium sulfate, 1.2 mmol/L potassium dihydrogen phosphate, 27.5 mmol/L sodium bicarbonate, 10 mmol/L glucose (pH 7.3)] (final potassium concentration: 30 mmol/L) was added, and the resulting mixture was incubated at 37° C. for 2 minutes to release [^3H]-histamine. The reaction mixture was centrifuged (10,000×g, 25° C., 3 min), and the obtained supernatant was passed through Amberlite CG-50 column (250 μL), and the non-adsorbed fractions were discarded. Then, 2 mL of 50 mmol/L [[…]]/hydrochloric acid (HCl) (pH 7.5) (Tris) was passed through the column 3 times, and 2 mL of distilled water, and 1.5 mL of a 0.2 mol/L aqueous sodium hydroxide solution were passed through the column in this order, and the eluted fractions were discarded. Then, 2 mL of a 0.2 mol/L aqueous sodium hydroxide solution was passed through the column, and the eluted fraction was recovered in a scintillation vial. Then, 8 mL of Ultimagold (Perkin Elmer) was added to the recovered eluted solution, and the radioactivity ([^3H]-histamine) was measured using a liquid scintillation counter. The inhibitory action of the test compound on the histamine release suppressive action of N^α-methylhistamine was evaluated by obtaining the inhibition ratio to the histamine release suppressive action in the presence of 1 μmol/L No-methylhistamine and 1 μmol/L of the test compound. The inhibition ratio of the [^3H]-histamine release suppressive action was calculated using the following Equation (2). […]

The target of data set [2] is T1, histamine H3 receptor. As to the kind of experiment: Histamine H3 receptor binding assay ([3H]-Nα-methylhistamine binding to rat striatum homogenate). To be noted: 1 μmol/L test compound; [3H]-Nα-methylhistamine 1 nmol/L; striata of Sprague-Dawley male rats, 25° C., 1 hour; read-out: Inhibition ratio of [3H]-Nα-methylhistamine binding. Summed up:
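Rat striatum membranes (20 μg protein) incubated with [3H]-Nα-methylhistamine 1 nmol/L in 50 mmol/L Tris/HCl pH 7.4, 5 mmol/L EDTA, 1 hour at 25° C; bound ligand by filtration and scintillation counting. Nonspecific binding defined with 10 μmol/L thioperamide; % inhibition reported at 1 μmol/L compound.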

Counter-ions that a name gives are not always drawn. A value given as a limit tells only on which side of the number the result lay.

T1 sequence (Q9QYN8 whole entry): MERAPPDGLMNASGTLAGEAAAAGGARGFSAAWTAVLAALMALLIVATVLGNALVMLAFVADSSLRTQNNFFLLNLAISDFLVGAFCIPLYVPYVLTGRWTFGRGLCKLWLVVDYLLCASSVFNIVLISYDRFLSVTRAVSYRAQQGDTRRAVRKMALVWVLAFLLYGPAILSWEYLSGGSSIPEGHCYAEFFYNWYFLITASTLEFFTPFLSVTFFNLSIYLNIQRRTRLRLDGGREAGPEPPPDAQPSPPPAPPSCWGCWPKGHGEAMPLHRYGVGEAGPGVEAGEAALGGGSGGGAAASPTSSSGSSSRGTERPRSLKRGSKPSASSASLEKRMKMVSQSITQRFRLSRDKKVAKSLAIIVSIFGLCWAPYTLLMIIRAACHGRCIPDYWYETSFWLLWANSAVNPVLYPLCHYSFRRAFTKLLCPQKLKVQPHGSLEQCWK

As to `CC1CCCN1CC1CCN(C(=C(C#N)C#N)N(C)CCN2CCCCC2)CC1` (centres unmarked) [Compound 149, {[N-methyl-N-(2-piperidinoethyl)amino][4-(2-methylpyrrolidin-1-ylmethyl)piperidino]methylene}malononitrile], the figures for the inhibition at 1 µM in data set [1] and in data set [2] were ≥ 70% and ≥ 80%, respectively.
As for `N#CC(C#N)=C1N(CCCN2CCCCC2)CCN1C1CCN(Cc2ccccc2)CC1` [Compound 126, [1-(1-Benzylpiperidin-4-yl)-3-(3-piperidinopropyl)imidazolidin-2-ylidene]malononitrile], the inhibition at 1 µM in data set [1] was ≥ 70%; in data set [2], ≥ 80%.
Turning to `N#CC(C#N)=C1N(CCCN2CCCCC2)CCN1CCCN1CCCCC1` [Compound 64, [1,3-Bis(3-piperidinopropyl)imidazolidin-2-ylidene]malononitrile], the figures for the inhibition at 1 µM in data set [1] and in data set [2] were ≥ 70% and ≥ 80%, respectively.
In the case of `C[C@H]1CCCN1CCCN1CCN(CCCN2CCC[C@@H]2C)C1=C(C#N)S(=O)(=O)c1ccccc1` [Compound 247, {1,3-Bis[3-((S)-2-methylpyrrolidin-1-yl)propyl]imidazolidin-2-ylidene}benzenesulfonylacetonitrile monohydrochloride], the inhibition at 1 µM was ≥ 70% in data set [1] and ≥ 80% in data set [2].
The corresponding values for `C[C@@H]1CCC[C@H](C)N1CCN1CCN(CCCN2CCCCC2)C1=C(C#N)C#N` [Compound 51, {1-[2-(Cis-2,6-dimethylpiperidino)ethyl]-3-(3-piperidinopropyl)imidazolidin-2-ylidene}malononitrile] are ≥ 70% and ≥ 80%.
The like results for `N#CC(C#N)=C1N(CCCN2CCCCC2)CCCN1CCCN1CCCCC1` [Compound 122, [1,3-Bis(3-piperidinopropyl)hexahydropyrimidin-2-ylidene]malononitrile] were, in that order, ≥ 70% and ≥ 80%.
The like results for `CC1CCCN1CCCN1CCN(CCCN2CCCCCC2)C1=C(C#N)C#N` (centres unmarked) [Compound 71, {1-[3-(Azepan-1-yl)propyl]-3-[3-(2-methylpyrrolidin-1-yl)propyl]imidazolidin-2-ylidene}malononitrile] were, in that order, ≥ 70% and ≥ 80%.
In the case of `CN1CCC(N2CCN(CCCN3CCCCC3)C2=C(C#N)C#N)CC1` [Compound 129, [1-(1-Methylpiperidin-4-yl)-3-(3-piperidinopropyl)imidazolidin-2-ylidene]malononitrile], the inhibition at 1 µM is ≥ 70% in data set [1] and ≥ 80% in data set [2].
As for `N#CC(C#N)=C1N(CCCN2CCCCC2)CCN1CCN1CCCCC1` [Compound 10, [1-(2-Piperidinoethyl)-3-(3-piperidinopropyl)imidazolidin-2-ylidene]malononitrile], the results for the inhibition at 1 µM in data set [1] and in data set [2] were ≥ 70% and ≥ 80%, respectively.
The corresponding values for `N#CC(C#N)=C1N(CCCN2CCCCC2)CCN1C1CCN(CCF)CC1` [Compound 215, {1-[1-(2-Fluoroethyl)piperidin-4-yl]-3-(3-piperidinopropyl)imidazolidin-2-ylidene}malononitrile] are ≥ 70% and ≥ 80%.
With `CC1CCCCN1CCN1CCN(CCCN2CCC[C@@H]2C)C1=C(C#N)C#N` (stereo partly drawn) [Compound 198, {3-[2-(2-Methylpiperidino)ethyl]-1-[3-((S)-2-methylpyrrolidin-1-yl)propyl]imidazolidin-2-ylidene}malononitrile], the melting point lay in the range of 88 to 89 °C. Moreover, in data set [2], the inhibition at 1 µM was ≥ 80%.
The like results for `C[C@@H]1CCCN1CCCN1CCN(CCN2CCC[C@H]2C)C1=C(C#N)C#N` [Compound 55, {1-[2-((R)-2-methylpyrrolidin-1-yl)ethyl]-3-[3-((R)-2-methylpyrrolidin-1-yl)propyl]imidazolidin-2-ylidene}malononitrile] were, in that order, 74 to 75 °C and ≥ 80%.
The like results for `N#CC(C#N)=C1N(CCCN2CCCC2)CCN1CCN1CCCC1` [Compound 60, {1-[2-(Pyrrolidin-1-yl)ethyl]-3-[3-(pyrrolidin-1-yl)propyl]imidazolidin-2-ylidene}malononitrile] were, in that order, 70 to 71 °C and ≥ 80%.
The corresponding values for `N#CC(C#N)=C1N(CCCN2CCCCC2)CCN1CCN1CCCC1` [Compound 59, {1-(3-Piperidinopropyl)-3-[2-(pyrrolidin-1-yl)ethyl]imidazolidin-2-ylidene}malononitrile] are 63 to 64 °C and ≥ 80%.
In turn, `C[C@@H]1CCCN1CCCN1CCN(CCN2CCCCC2)C1=C(C#N)C#N` [Compound 194, {1-[3-((R)-2-methylpyrrolidin-1-yl)propyl]-3-(2-piperidinoethyl)imidazolidin-2-ylidene}malononitrile] showed a melting point of 74 to 76 °C. Besides, the inhibition at 1 µM in data set [2] is ≥ 80%.
As to `CC1CCCN1C1CCN(C(NCCCN2CCCCC2)=C(C#N)C#N)CC1` (centres unmarked) [Compound 163, {[4-(2-Methylpyrrolidin-1-yl)piperidino](3-piperidinopropylamino)methylene}malononitrile], the melting point was 83 to 84 °C. Also, the inhibition at 1 µM in data set [2] is ≥ 80%.
`C[C@@H]1CCCN1CCCN1CCN(CCN2CCC[C@@H]2C)C1=C(C#N)C#N` [Compound 197, {3-[2-((S)-2-methylpyrrolidin-1-yl)ethyl]-1-[3-((R)-2-methylpyrrolidin-1-yl)propyl]imidazolidin-2-ylidene}malononitrile] returned a melting point of 93 to 94 °C. For the same molecule, the inhibition at 1 µM in data set [2] is ≥ 80%.
The like results for `CC1CCCN1CCCN1C(=C(C#N)C#N)N(CCN2CCCCC2)c2ccccc21` (centres unmarked) [Compound 200, {1-[3-(2-Methylpyrrolidin-1-yl)propyl]-3-(2-piperidinoethyl)benzimidazolidin-2-ylidene}malononitrile] were, in that order, 85 to 86 °C and ≥ 80%.
Regarding `N#CC(C#N)=C(NCCN1CCCCC1)N1CCC(CN2CCCCC2)CC1` [Compound 147, [(2-Piperidinoethylamino)(4-piperidinomethylpiperidino)methylene]malononitrile], the melting point is 78 to 80 °C. Moreover, in data set [2], the inhibition at 1 µM is ≥ 80%.
The corresponding values for `CC(C)N1CCC(N(C)C(=C(C#N)C#N)N2CCC(CN3CCCCC3)CC2)CC1` [Compound 179, {[N-(1-isopropylpiperidin-4-yl)-N-methylamino](4-piperidinomethylpiperidino)methylene}malononitrile] are 197 to 198 °C and ≥ 80%.
The like results for `C[C@@H]1CCCN1CCCN1CCN(CCCN2CCC[C@@H]2C)C1=C(C#N)C#N` [Compound 117] were, in that order, 87 to 89 °C and ≥ 80%.
`C[C@H]1CCCN1CCCN1CCN(CCCN2CCOCC2)C1=C(C#N)C#N` [Compound 201, {3-(3-Morpholinopropyl)-1-[3-((S)-2-methylpyrrolidin-1-yl)propyl]imidazolidin-2-ylidene}malononitrile] gave a melting point of 72 to 73 °C. Further, in data set [2], the inhibition at 1 µM was ≥ 80%.
